Calls of active or inactive are those of the source. No cut-off for these calls is given here.
Key:
[1] = molecular target: T1, Androgen receptor (Rattus norvegicus) (UniProt P15207); assay: Relative binding affinity against androgen (AR) receptor of rat after 24 hr incubation as percent binding compared to R1881
T1 sequence (whole entry): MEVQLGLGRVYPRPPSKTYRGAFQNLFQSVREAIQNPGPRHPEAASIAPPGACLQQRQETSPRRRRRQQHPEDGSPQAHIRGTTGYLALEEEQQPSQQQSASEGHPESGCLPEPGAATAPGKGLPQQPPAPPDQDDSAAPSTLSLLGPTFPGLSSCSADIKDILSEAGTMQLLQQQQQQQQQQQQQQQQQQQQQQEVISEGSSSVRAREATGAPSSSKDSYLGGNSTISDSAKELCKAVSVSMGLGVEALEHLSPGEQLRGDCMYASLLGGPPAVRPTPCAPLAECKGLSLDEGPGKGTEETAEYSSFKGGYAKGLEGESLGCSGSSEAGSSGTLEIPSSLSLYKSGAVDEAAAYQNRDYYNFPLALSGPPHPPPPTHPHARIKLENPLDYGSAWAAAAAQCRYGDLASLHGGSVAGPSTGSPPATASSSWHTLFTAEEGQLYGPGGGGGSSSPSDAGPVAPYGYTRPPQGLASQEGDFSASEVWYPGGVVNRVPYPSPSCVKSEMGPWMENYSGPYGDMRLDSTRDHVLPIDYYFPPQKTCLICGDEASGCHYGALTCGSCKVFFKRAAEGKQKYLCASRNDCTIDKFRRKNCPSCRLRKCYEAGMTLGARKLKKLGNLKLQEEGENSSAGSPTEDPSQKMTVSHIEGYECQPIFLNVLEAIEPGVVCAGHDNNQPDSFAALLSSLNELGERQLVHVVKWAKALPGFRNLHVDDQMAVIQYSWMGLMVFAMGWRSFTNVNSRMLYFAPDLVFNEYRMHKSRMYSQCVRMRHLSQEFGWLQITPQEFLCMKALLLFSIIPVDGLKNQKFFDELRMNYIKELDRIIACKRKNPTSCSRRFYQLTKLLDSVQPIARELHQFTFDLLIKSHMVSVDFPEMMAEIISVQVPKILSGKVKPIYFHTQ

[2] = molecular target: T2, Glucocorticoid receptor (Rattus norvegicus) (UniProt P06536); assay: Relative binding affinity against Glucocorticoid receptor of rat after 2 hr incubation as percent binding compared to Dexamethasone
T2 sequence (whole entry): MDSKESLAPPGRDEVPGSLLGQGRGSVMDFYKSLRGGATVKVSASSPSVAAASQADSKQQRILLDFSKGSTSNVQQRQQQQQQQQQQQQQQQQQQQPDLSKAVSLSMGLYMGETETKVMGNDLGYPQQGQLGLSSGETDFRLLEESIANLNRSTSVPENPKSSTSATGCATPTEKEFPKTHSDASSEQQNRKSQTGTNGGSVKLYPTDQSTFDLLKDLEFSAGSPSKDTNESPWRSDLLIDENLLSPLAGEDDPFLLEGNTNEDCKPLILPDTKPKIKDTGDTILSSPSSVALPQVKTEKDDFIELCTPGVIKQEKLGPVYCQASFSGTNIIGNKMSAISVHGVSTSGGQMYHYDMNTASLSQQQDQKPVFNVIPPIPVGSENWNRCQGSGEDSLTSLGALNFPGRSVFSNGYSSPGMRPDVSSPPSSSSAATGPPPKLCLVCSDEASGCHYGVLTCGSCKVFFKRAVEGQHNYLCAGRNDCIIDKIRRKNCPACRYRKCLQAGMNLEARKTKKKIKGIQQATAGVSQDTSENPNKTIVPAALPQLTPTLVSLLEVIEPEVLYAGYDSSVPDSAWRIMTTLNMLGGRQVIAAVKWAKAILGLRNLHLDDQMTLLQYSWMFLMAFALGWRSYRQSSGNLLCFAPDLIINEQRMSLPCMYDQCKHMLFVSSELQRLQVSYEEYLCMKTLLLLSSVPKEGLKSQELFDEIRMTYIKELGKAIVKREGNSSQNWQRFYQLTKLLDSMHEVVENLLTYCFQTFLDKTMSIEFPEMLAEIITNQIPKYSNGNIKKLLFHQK

[3] = molecular target: T3, Progesterone receptor (Homo sapiens, UniProt P06401); assay: In vitro antagonist potency in transactivation assay in neuroblastoma cells expressing human PR-A progesterone receptor; type: functional, cell-based
T3 sequence (P06401 whole entry): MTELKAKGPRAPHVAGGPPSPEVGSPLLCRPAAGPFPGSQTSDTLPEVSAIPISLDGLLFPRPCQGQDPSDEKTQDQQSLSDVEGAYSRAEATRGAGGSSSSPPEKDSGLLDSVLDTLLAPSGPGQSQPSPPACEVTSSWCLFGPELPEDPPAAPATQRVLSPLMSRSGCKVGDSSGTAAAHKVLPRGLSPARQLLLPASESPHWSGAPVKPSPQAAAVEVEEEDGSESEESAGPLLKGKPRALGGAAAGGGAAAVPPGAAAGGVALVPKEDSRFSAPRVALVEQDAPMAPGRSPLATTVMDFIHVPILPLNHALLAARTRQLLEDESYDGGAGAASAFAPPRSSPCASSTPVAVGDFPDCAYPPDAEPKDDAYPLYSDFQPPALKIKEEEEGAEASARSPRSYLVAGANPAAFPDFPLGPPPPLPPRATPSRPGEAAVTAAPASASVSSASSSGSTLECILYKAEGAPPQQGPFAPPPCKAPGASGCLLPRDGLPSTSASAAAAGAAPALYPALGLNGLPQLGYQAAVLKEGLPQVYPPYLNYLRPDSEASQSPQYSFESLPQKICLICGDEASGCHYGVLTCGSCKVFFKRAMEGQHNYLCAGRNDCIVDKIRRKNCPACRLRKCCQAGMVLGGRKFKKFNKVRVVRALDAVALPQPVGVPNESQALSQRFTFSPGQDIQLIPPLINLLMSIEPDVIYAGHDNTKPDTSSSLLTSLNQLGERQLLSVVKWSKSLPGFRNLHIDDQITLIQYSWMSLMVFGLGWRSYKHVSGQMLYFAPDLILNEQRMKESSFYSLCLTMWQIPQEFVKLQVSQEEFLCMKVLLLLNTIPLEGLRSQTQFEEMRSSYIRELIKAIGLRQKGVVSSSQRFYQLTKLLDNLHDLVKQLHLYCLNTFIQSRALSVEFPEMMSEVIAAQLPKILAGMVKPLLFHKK

[4] = molecular target: T4, Androgen receptor (Homo sapiens, UniProt P10275); assay: In vitro antagonist potency in transactivation assay in CV-1 cells expressing androgen receptor; type: functional, cell-based
T4 sequence (P10275 whole entry): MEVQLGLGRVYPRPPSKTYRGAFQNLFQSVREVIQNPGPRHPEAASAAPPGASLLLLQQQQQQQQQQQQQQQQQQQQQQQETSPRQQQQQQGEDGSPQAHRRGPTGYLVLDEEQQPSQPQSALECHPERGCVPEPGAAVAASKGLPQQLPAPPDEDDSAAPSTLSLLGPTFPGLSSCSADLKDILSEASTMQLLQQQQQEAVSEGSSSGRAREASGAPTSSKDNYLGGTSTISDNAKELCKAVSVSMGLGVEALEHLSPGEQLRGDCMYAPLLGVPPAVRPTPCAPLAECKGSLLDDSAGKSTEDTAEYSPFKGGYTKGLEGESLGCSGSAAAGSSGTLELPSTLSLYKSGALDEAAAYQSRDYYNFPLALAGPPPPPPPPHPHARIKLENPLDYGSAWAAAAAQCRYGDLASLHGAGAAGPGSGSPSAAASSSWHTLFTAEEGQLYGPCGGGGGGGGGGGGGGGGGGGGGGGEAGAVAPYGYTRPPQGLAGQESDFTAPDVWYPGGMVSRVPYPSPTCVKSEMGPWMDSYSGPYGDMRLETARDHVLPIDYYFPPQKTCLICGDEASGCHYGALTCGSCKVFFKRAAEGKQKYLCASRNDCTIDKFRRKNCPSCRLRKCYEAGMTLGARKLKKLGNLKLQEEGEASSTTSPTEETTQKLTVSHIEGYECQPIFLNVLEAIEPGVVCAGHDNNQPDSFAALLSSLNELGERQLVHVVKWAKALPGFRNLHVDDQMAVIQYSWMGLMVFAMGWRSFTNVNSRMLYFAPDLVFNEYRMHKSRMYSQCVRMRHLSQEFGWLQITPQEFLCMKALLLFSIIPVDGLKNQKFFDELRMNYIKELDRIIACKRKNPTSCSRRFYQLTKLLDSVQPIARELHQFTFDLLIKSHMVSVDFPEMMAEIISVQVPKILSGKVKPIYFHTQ

[5] = molecular target: T3, Progesterone receptor; assay: In vitro antagonist potency in transactivation assay in neuroblastoma cells expressing human PR-B progesterone receptor; type: functional, cell-based
[6] = molecular target: T5, Glucocorticoid receptor (Mus musculus, UniProt P06537); assay: In vitro antagonist potency in transactivation assay in NIH3T3 cells expressing glucocorticoid receptor; type: functional, cell-based
T5 sequence (P06537 whole entry): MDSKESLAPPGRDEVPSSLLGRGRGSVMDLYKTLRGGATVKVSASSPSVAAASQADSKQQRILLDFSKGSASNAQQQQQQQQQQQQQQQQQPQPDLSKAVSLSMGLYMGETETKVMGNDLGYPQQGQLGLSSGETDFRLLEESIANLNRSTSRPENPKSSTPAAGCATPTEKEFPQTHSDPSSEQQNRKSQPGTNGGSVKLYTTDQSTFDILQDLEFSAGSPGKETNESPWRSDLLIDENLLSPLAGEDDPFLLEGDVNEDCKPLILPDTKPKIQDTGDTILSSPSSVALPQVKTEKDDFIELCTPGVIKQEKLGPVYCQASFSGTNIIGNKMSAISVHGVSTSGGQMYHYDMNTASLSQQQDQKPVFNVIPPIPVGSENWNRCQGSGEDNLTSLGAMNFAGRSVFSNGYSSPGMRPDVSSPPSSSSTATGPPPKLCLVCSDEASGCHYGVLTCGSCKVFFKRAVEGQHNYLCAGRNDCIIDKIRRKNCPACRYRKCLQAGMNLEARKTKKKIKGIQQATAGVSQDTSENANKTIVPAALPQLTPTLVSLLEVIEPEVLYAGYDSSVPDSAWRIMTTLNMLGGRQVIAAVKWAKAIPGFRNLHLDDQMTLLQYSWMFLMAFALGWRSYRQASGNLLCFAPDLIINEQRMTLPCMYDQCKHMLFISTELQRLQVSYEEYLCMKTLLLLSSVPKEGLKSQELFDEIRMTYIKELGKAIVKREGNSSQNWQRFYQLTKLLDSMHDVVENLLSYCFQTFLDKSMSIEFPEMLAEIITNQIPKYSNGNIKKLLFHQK

[7] = species on record: Oryctolagus cuniculus; assay: Relative binding affinity against rabbit progesterone (PR) receptor after 24 hr incubation as perent binding compared to progesterone
[8] = molecular target: T6, Progesterone receptor (Rattus norvegicus) (UniProt Q63449); assay: Full abortifacient effect at 0.03 mg/animal/day in pregnant rats; type: functional
T6 sequence (whole entry): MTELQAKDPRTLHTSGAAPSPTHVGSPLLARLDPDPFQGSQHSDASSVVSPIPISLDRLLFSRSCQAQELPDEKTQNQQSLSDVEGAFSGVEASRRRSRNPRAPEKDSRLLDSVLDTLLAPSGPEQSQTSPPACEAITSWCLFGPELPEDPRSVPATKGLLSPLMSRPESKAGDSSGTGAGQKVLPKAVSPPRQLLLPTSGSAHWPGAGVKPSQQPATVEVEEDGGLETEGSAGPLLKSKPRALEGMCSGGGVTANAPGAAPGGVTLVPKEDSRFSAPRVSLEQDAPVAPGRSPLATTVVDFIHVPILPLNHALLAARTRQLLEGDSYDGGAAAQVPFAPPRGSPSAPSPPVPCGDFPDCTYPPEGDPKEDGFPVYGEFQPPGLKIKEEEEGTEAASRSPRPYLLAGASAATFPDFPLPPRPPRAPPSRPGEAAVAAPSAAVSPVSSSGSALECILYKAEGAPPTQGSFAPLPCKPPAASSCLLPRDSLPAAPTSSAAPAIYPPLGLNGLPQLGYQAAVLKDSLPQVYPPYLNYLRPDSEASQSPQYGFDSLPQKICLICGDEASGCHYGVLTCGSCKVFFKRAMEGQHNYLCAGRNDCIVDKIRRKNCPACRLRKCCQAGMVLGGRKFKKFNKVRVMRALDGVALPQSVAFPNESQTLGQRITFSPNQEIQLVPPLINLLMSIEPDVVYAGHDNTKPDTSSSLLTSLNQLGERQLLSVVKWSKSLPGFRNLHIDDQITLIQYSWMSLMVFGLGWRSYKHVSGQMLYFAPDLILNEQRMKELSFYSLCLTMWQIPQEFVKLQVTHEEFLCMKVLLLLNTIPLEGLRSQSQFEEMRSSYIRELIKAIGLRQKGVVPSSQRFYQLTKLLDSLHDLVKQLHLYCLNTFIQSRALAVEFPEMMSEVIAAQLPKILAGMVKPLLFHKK

[9] = molecular target: T6, Progesterone receptor (Rattus norvegicus); assay: Full abortifacient effect at 0.1 mg/animal/day in pregnant rats; type: functional
[10] = molecular target: T6, Progesterone receptor (Rattus norvegicus); assay: Full abortifacient effect at 0.3 mg/animal/day in pregnant rats; type: functional
[11] = molecular target: T6, Progesterone receptor (Rattus norvegicus); assay: Incomplete abortifacient effect at 0.03 mg/animal/day in pregnant rats; type: functional
[12] = molecular target: T6, Progesterone receptor (Rattus norvegicus); assay: Incomplete abortifacient effect at 0.1 mg/animal/day in pregnant rats; type: functional
[13] = molecular target: T6, Progesterone receptor (Rattus norvegicus); assay: Incomplete abortifacient effect at 0.3 mg/animal/day in pregnant rats; type: functional
[14] = molecular target: T1, Androgen receptor (Rattus norvegicus)
Description: Antiandrogenic activity in orchidectomized young male rats after oral administration

[15] = molecular target: T2, Glucocorticoid receptor (Rattus norvegicus)
Description: Antiglucocorticoid activity in adrenalectomized young male rats after oral administration

[16] = molecular target: T7, Progesterone receptor (Homo sapiens) (UniProt P06401)
T7 sequence (whole entry): T3 sequence (P06401 whole entry)
Description: In vitro agonist potency in transactivation assay of neuroblastoma cells expressing human PR-B progesterone receptor; NE=no effect

[17] = molecular target: T7, Progesterone receptor (Homo sapiens); remark: listed apart in the source
[18] = molecular target: T8, Glucocorticoid receptor (Mus musculus) (UniProt P06537); settings: NIH3T3
T8 sequence (whole entry): T5 sequence (P06537 whole entry)
Description: In vitro agonist potency in transactivation assay in NIH3T3 cells expressing glucocorticoid receptor; NE=no effect

| RBA [1] [%] | RBA [2] [%] | IC50 [3] [nM] | IC50 [4] [nM] | IC50 [5] [nM] | IC50 [6] [nM] | RBA [7] [%] | Abortion [8] [%] | Abortion [9] [%] | Abortion [10] [%] | Abortion [11] [%] | Abortion [12] [%] | Abortion [13] [%] | ED50 mg/animal/day [14] | ED50 mg/animal/day [15] | NE [16] | NE [17] | NE [18] | SMILES |
| --- | --- | --- | --- | --- | --- | --- | --- | --- | --- | --- | --- | --- | --- | --- | --- | --- | --- | --- |
| 3.1 | 22.2 | 0.0036 | 54 | 0.0025 | 16 | 140 | 0 | 83 | 100 | 0 | 17 | 0 | 1.3 | 2 | – | – | – | CC(=O)c1ccc([C@H]2C[C@@]3(C)[C@@H](CC[C@@]3(O)C(F)(F)C(F)(F)F)[C@@H]3CCC4=CC(=O)CCC4=C32)cc1 [LONAPRISAN] |
| – | – | – | – | – | 2.2 | – | – | – | – | – | – | – | – | – | inactive | inactive | inactive | CC#C[C@]1(O)CC[C@H]2[C@@H]3CCC4=CC(=O)CCC4=C3[C@@H](c3ccc(N(C)C)cc3)C[C@@]21C [MIFEPRISTONE] |

— ChEMBL document CHEMBL1133568 (J Med Chem, 2000)
